Data taken from US6525001B1, “Substituted pyrimidine and pyridine herbicides” (Mid-American Commercialization Corporation, priority 1997, dated 2003).

Experiments:
Format in all cases: in vivo
[1] = tested on: field bindweed (Convolvulus arvensis); assay: Test C; settings: PREEMERGENCE
[2] = tested on: hairy beggarticks (Bidens pilosa); assay: Test C; parameters: key: 0 was no effect; 100 was complete control; settings: PREEMERGENCE
[3] = tested on: johnsongrass (Sorghum halepense); assay: Test C; parameters: key: 0 was no effect; 100 was complete control; settings: PREEMERGENCE
[4] = tested on: purple nutsedge (Cyperus rotundus); assay: Test C; parameters: key: 0 was no effect; 100 was complete control; settings: PREEMERGENCE
soybean (Glycine max) = assay: Test C; parameters: key: 0 was no effect; 100 was complete control; settings: PREEMERGENCE
[5] = tested on: bermudagrass (Cynodon dactylon); assay: Test E pre-/postemergence/post directed; parameters: key: 0 is no effect; 100 is complete control; settings: PREEMERGENCE
Outline: (§1)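 Three application modes in greenhouse pots: preemergence soil spray, postemergence foliar spray at two to four leaves, and post-directed spray to soil and plant base. Ratings of 0–100 injury, assigned visually against untreated controls 13 to 21 days later.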

[6] = tested on: common groundsel (Senecio vulgaris); assay: Test E pre-/postemergence/post directed; parameters: key: 0 is no effect; 100 is complete control; settings: PREEMERGENCE
Outline: as §1

[7] = tested on: common purslane (Portulaca oleracea); assay: Test E pre-/postemergence/post directed; parameters: key: 0 is no effect; 100 is complete control
Outline: as §1

[8] = tested on: common ragweed (Ambrosia elatior); assay: Test E pre-/postemergence/post directed; parameters: key: 0 is no effect; 100 is complete control; settings: PREEMERGENCE
Outline: as §1

[9] = tested on: dallisgrass (Paspalum dilatatum); assay: Test E pre-/postemergence/post directed; parameters: key: 0 is no effect; 100 is complete control
Outline: as §1

[10] = tested on: goosegrass (Eleusine indica); assay: Test E pre-/postemergence/post directed; parameters: key: 0 is no effect; 100 is complete control
Outline: as §1

[11] = tested on: guineagrass (Panicum maximum); assay: Test E pre-/postemergence/post directed; parameters: key: 0 is no effect; 100 is complete control
Outline: as §1

[12] = tested on: large crabgrass (Digitaria sanguinalis); assay: Test E pre-/postemergence/post directed; parameters: key: 0 is no effect; 100 is complete control; settings: PREEMERGENCE
Outline: as §1

[13] = tested on: sourgrass (Trichachne insularis); assay: Test E pre-/postemergence/post directed; parameters: key: 0 is no effect; 100 is complete control
Outline: as §1

[14] = tested on: surinam grass (Brachiaria decumbens); assay: Test E pre-/postemergence/post directed; parameters: key: 0 is no effect; 100 is complete control; settings: PREEMERGENCE, Rate 250 g/ha
Outline: as §1

[15] = tested on: tall mallow (Malva sylvestris); assay: Test E pre-/postemergence/post directed; parameters: key: 0 is no effect; 100 is complete control; settings: PREEMERGENCE
Outline: as §1

[16] = tested on: downy brome (Bromus tectorum); assay: Test D; settings: PREEMERGENCE
wild oat (Avena fatua) = assay: Test D; settings: PREEMERGENCE

## Cc1cnc(-c2ccc(C(F)(F)F)cc2)nc1Cc1cccc(C(F)(F)F)c1 [Example 1, 5-methyl-2-[4-(trifluoromethyl)phenyl]-4-[[3-(trifluoromethyl)phenyl]methyl]pyrimidine]
[1]; Rate 35 g/ha
  Plant response rating, Field bindweed: 65
[1]; Rate 70 g/ha
  Plant response rating, Field bindweed: 50
[1]; Rate 140 g/ha
  Plant response rating, Field bindweed: 50
[2]; Rate 35 g/ha
  Plant response rating, H. beggarticks: 20
[2]; Rate 70 g/ha
  Plant response rating, H. beggarticks: 100
[2]; Rate 140 g/ha
  Plant response rating, H. beggarticks: 100
[3]; Rate 35 g/ha
  Plant response rating, Johnsongrass: 50
[3]; Rate 70 g/ha
  Plant response rating, Johnsongrass: 95
[3]; Rate 140 g/ha
  Plant response rating, Johnsongrass: 100
[4]; Rate 35 g/ha
  Plant response rating, Purple nutsedge: 0
[4]; Rate 70 g/ha
  Plant response rating, Purple nutsedge: 0
[4]; Rate 140 g/ha
  Plant response rating, Purple nutsedge: 0
Soybean (Glycine max); Rate 35 g/ha
  Plant response rating, Soybean: 0
Soybean (Glycine max); Rate 70 g/ha
  Plant response rating, Soybean: 0
Soybean (Glycine max); Rate 140 g/ha
  Plant response rating, Soybean: 0
[5]; Rate 32 g/ha
  Plant response rating, Bermudagrass: 100
[5]; Rate 64 g/ha
  Plant response rating, Bermudagrass: 100
[5]; Rate 125 g/ha
  Plant response rating, Bermudagrass: 100
[5]; Rate 250 g/ha
  Plant response rating, Bermudagrass: 100
[6]; Rate 64 g/ha
  Plant response rating, Com. groundsel: 100
[6]; Rate 125 g/ha
  Plant response rating, Com. groundsel: 100
[6]; Rate 250 g/ha
  Plant response rating, Com. groundsel: 100
[7]; POSTEMERGENCE, Rate 250 g/ha
  Plant response rating, Com. purslane: 40
[7]; PREEMERGENCE, Rate 32 g/ha
  Plant response rating, Com. purslane: 98
[7]; PREEMERGENCE, Rate 64 g/ha
  Plant response rating, Com. purslane: 100
[7]; PREEMERGENCE, Rate 125 g/ha
  Plant response rating, Com. purslane: 100
[7]; PREEMERGENCE, Rate 250 g/ha
  Plant response rating, Com. purslane: 100
[8]; Rate 64 g/ha
  Plant response rating, Com. ragweed: 100
[8]; Rate 125 g/ha
  Plant response rating, Com. ragweed: 100
[8]; Rate 250 g/ha
  Plant response rating, Com. ragweed: 100
[9]; POSTEMERGENCE, Rate 250 g/ha
  Plant response rating, Dallisgrass: 90
[9]; PREEMERGENCE, Rate 32 g/ha
  Plant response rating, Dallisgrass: 98
[9]; PREEMERGENCE, Rate 64 g/ha
  Plant response rating, Dallisgrass: 100
[9]; PREEMERGENCE, Rate 125 g/ha
  Plant response rating, Dallisgrass: 100
[9]; PREEMERGENCE, Rate 250 g/ha
  Plant response rating, Dallisgrass: 100
[10]; POSTEMERGENCE, Rate 250 g/ha
  Plant response rating, Goosegrass: 70
[10]; PREEMERGENCE, Rate 32 g/ha
  Plant response rating, Goosegrass: 100
[10]; PREEMERGENCE, Rate 64 g/ha
  Plant response rating, Goosegrass: 100
[10]; PREEMERGENCE, Rate 125 g/ha
  Plant response rating, Goosegrass: 100
[10]; PREEMERGENCE, Rate 250 g/ha
  Plant response rating, Goosegrass: 100
[11]; POSTEMERGENCE, Rate 250 g/ha
  Plant response rating, Guineagrass: 70
[11]; PREEMERGENCE, Rate 32 g/ha
  Plant response rating, Guineagrass: 90
[11]; PREEMERGENCE, Rate 64 g/ha
  Plant response rating, Guineagrass: 100
[11]; PREEMERGENCE, Rate 125 g/ha
  Plant response rating, Guineagrass: 100
[11]; PREEMERGENCE, Rate 250 g/ha
  Plant response rating, Guineagrass: 100
[12]; Rate 32 g/ha
  Plant response rating, Large crabgrass: 100
[12]; Rate 64 g/ha
  Plant response rating, Large crabgrass: 100
[12]; Rate 125 g/ha
  Plant response rating, Large crabgrass: 100
[12]; Rate 250 g/ha
  Plant response rating, Large crabgrass: 100
[13]; POSTEMERGENCE, Rate 250 g/ha
  Plant response rating, Sourgrass: 30
[13]; PREEMERGENCE, Rate 32 g/ha
  Plant response rating, Sourgrass: 100
[13]; PREEMERGENCE, Rate 64 g/ha
  Plant response rating, Sourgrass: 100
[13]; PREEMERGENCE, Rate 125 g/ha
  Plant response rating, Sourgrass: 100
[13]; PREEMERGENCE, Rate 250 g/ha
  Plant response rating, Sourgrass: 100
[14]
  Plant response rating, Surinam grass: 100
[15]; Rate 32 g/ha
  Plant response rating, Tall Mallow: 100
[15]; Rate 64 g/ha
  Plant response rating, Tall Mallow: 100
[15]; Rate 125 g/ha
  Plant response rating, Tall Mallow: 100
[15]; Rate 250 g/ha
  Plant response rating, Tall Mallow: 100
[16]; Rate 31 g/ha
  Plant response rating, Downy brome: 30
[16]; Rate 62 g/ha
  Plant response rating, Downy brome: 50
[16]; Rate 125 g/ha
  Plant response rating, Downy brome: 60
Wild oat (Avena fatua); Rate 31 g/ha
  Plant response rating, Wild oat: 20
Wild oat (Avena fatua); Rate 62 g/ha
  Plant response rating, Wild oat: 60
Wild oat (Avena fatua); Rate 125 g/ha
  Plant response rating, Wild oat: 60
Wild oat (Avena fatua); Rate 250 g/ha
  Plant response rating, Wild oat: 90
